From patent US4297486A, “Aminoglycoside antibiotic G-367-1 and method for the production thereof” (Toyo Jozo Kabushiki Kaisha, priority 1979, dated 1981)

Experiments:
[1] = Solubility; format: physicochemical
[2] = test system: Staphylococcus aureus MS 27; test: antimicrobial spectrum, MIC by agar dilution method; format: cell-based; conditions: MS27, read-out: minimum inhibitory concentration, MIC
Source text: (§1) The antimicrobial spectrum (minimum inhibitory concentration, MIC) of G-367-1 by agar dilution method is as follows: […]

[3] = test system: Klebsiella pneunonia ATCC 10031; test: as above; format: cell-based; conditions: ATCC10031, read-out: minimum inhibitory concentration, MIC
Source text: as §1

[4] = test system: Enterobacter cloacae GN366; test: as above; format: cell-based; conditions: read-out: minimum inhibitory concentration, MIC
Source text: as §1

[5] = test system: Pseudomonas aeruginosa 1946; test: as above; format: cell-based; conditions: read-out: minimum inhibitory concentration, MIC
Source text: as §1

[6] = test system: Pseudomonas aeruginosa ML4561 RP4; test: as above; format: cell-based; conditions: ML4561RP4, read-out: minimum inhibitory concentration, MIC
Source text: as §1

[7] = test system: Pseudomonas aeruginosa 2512; test: as above; format: cell-based; conditions: read-out: minimum inhibitory concentration, MIC
Source text: as §1

[8] = test system: Staphylococcus epidermidis sp-al-1; test: as above; format: cell-based; conditions: SPAL1, read-out: minimum inhibitory concentration, MIC
Source text: as §1

[9] = test system: Escheria coli W3630; test: as above; format: cell-based; conditions: read-out: minimum inhibitory concentration, MIC
Source text: as §1

[10] = test system: Pseudomonas maltophilia 1850; test: as above; format: cell-based; conditions: Stenotrophomonas maltophilia, read-out: minimum inhibitory concentration, MIC
Source text: as §1

[11] = test system: Pseudomonas aeruginosa ML4561; test: as above; format: cell-based; conditions: read-out: minimum inhibitory concentration, MIC
Source text: as §1

[12] = test system: Pseudomonas aeruginosa IAM1095; test: as above; format: cell-based; conditions: read-out: minimum inhibitory concentration, MIC
Source text: as §1

[13] = test system: Shigella sonnei E33; test: as above; format: cell-based; conditions: read-out: minimum inhibitory concentration, MIC
Source text: as §1

[14] = test system: Streptococcus pyogenes N.Y.5; test: as above; format: cell-based; conditions: read-out: minimum inhibitory concentration, MIC
Source text: as §1

[15] = test system: Staphylococcus aureus ATCC 6538P; test: as above; format: cell-based; conditions: ATCC6538P, read-out: minimum inhibitory concentration, MIC
Source text: as §1

[16] = test system: Serratia marcescens; test: as above; format: cell-based; conditions: read-out: minimum inhibitory concentration, MIC
Source text: as §1

[17] = test system: Escherichia coli NIHJ-JC2; test: as above; format: cell-based; conditions: NIHJJC2, read-out: minimum inhibitory concentration, MIC
Source text: as §1

[18] = test system: Proteus rettgeri ACR; test: as above; format: cell-based; conditions: Providencia rettgeri, read-out: minimum inhibitory concentration, MIC
Source text: as §1

[19] = test system: Staphylococcus aureus 0119; test: as above; format: cell-based; conditions: read-out: minimum inhibitory concentration, MIC
Source text: as §1

[20] = test system: Citrobacter freundii GN346; test: as above; format: cell-based; conditions: read-out: minimum inhibitory concentration, MIC
Source text: as §1

[21] = test system: Bacillus subtilis ATCC 6633; test: as above; format: cell-based; conditions: ATCC6633, read-out: minimum inhibitory concentration, MIC
Source text: as §1

[22] = test system: Pseudomonas aeruginosa ML4561 Rms164-1; test: as above; format: cell-based; conditions: ML4561RMS1641, read-out: minimum inhibitory concentration, MIC
Source text: as §1

[23] = test system: Pseudomonas aeruginosa ML4561 Rms166; test: as above; format: cell-based; conditions: ML4561RMS166, read-out: minimum inhibitory concentration, MIC
Source text: as §1

[24] = test system: Salmonella enteritidis Gartner; test: as above; format: cell-based; conditions: Salmonella enterica, read-out: minimum inhibitory concentration, MIC
Source text: as §1

[25] = test system: Enterobacter aerogenes 0655; test: as above; format: cell-based; conditions: Klebsiella aerogenes, read-out: minimum inhibitory concentration, MIC
Source text: as §1

[26] = test system: Proteus morganii 0239; test: as above; format: cell-based; conditions: Morganella morganii, read-out: minimum inhibitory concentration, MIC
Source text: as §1

[27] = test system: Pseudomonas putida 1842; test: as above; format: cell-based; conditions: read-out: minimum inhibitory concentration, MIC
Source text: as §1

[28] = test system: Gram negative bacteria; test: antibacterial effect against Gram negative bacteria; format: cell-based
Source text: as §1

CNC1C(O)C(OC2C(N)CC(N)C(OC3OC(CN)=CCC3NC=O)C2O)OCC1(C)O (stereo not drawn) [G-367-1]
insoluble: Solubility ([1]; acetone) | Solubility ([1]; benzene) | Solubility ([1]; chloroform) | Solubility ([1]; ethyl acetate)
soluble: Solubility ([1]; methanol) | Solubility ([1]; water)
0.8 µg/mL: MIC [21]
25 µg/mL: MIC [11] | MIC [12] | MIC [16]
1.6 µg/mL: MIC [3] | MIC [4] | MIC [8] | MIC [9] | MIC [13] | MIC [17] | MIC [20] | MIC [24] | MIC [25]
6.3 µg/mL: MIC [2] | MIC [14] | MIC [15]
strong antibacterial effect: antibacterial effect [28]
50 µg/mL: MIC [22]
12.5 µg/mL: MIC [6] | MIC [19]
3.1 µg/mL: MIC [18] | MIC [26]
> 100 µg/mL: MIC [5] | MIC [7] | MIC [10] | MIC [23] | MIC [27]
